Each structure is given as a SMILES string. Counter-ions that a name gives are not always drawn. Some results are limits rather than exact numbers.

In patent US8148365B2 (priority 2006, dated 2012) one finds IC50 data, which are given here for one molecule.

The target of the test is α7-subtype of nicotinic receptors (Rattus norvegicus, UniProt Q05941). As to the kind of experiment: biochemical. It counts as binding.
Sequence of α7-subtype of nicotinic receptors (Q05941 23-502): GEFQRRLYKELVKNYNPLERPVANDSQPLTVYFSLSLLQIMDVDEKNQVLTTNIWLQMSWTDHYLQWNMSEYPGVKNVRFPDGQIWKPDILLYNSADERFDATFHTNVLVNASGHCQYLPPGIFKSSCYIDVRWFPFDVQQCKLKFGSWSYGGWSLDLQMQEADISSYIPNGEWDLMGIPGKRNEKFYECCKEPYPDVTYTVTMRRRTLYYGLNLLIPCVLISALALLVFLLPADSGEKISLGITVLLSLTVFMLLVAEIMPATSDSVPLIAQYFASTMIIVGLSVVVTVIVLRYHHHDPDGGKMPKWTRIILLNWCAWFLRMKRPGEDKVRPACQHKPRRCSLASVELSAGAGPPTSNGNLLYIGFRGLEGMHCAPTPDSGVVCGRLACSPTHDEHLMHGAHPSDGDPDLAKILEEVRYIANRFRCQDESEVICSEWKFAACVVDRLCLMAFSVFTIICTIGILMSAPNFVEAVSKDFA

Molecule `O=C(Nc1cnc(N2CCN3CCC2CC3)nc1)c1ccccc1` [Compound 1, N-[2-(1,4-Diaza-bicyclo[3.2.2]non-4-yl)-pyrimidin-5-yl]-benzamide hydrochloric acid salt] returned an IC50 of less than 100 nM.

The IC50 is the concentration needed to halve the response being measured. Low readings indicate greater potency, high ones weaker potency.
